Assay results published in ChEMBL document CHEMBL4304761, “Alkylsulfonamide-containing quinazoline derivatives as potent and orally bioavailable PI3Ks inhibitors” (Bioorg Med Chem, 2019).
The source made the active and inactive calls. The rule behind the calls is not given here.

How the values were obtained:
[1] = target: T1, Phosphatidylinositol 4,5-bisphosphate 3-kinase catalytic subunit alpha isoform (Homo sapiens, UniProt P42336); test: Inhibition of PI3K alpha (unknown origin) using lipid substrate measured after 40 mins in presence of ATP by Kinase-Glo plus reagent based luminescence assay
HCT-116 [2] = test: Antiproliferative activity against human HCT116 cells harboring PIK3CA mutant H1047R measured after 72 hrs by MTT assay; format: functional, cell-based; details: HCT-116, 72 h
MCF7 = test: Antiproliferative activity against human MCF7 cells harboring PIK3CA mutant E545K measured after 72 hrs by MTT assay; format: functional, cell-based; details: MCF7, 72 h
SU-DHL-6 = test: Antiproliferative activity against human SUDHL6 cells measured after 72 hrs by CCK-8 assay; format: functional, cell-based; details: SU-DHL-6, 72 h
[3] = target: Phosphatidylinositol 4,5-bisphosphate 3-kinase catalytic subunit beta isoform (Homo sapiens, UniProt P42338); test: Inhibition of PI3K beta (unknown origin) using lipid substrate measured after 40 mins in presence of ATP by Kinase-Glo plus reagent based luminescence assay
[4] = target: Phosphatidylinositol 4,5-bisphosphate 3-kinase catalytic subunit gamma isoform (Homo sapiens, UniProt P48736); test: Inhibition of PI3K gamma (unknown origin) using lipid substrate measured after 40 mins in presence of ATP by Kinase-Glo plus reagent based luminescence assay
[5] = target: T2, Phosphatidylinositol 4,5-bisphosphate 3-kinase catalytic subunit delta isoform (Homo sapiens, UniProt O00329); test: Inhibition of PI3K delta (unknown origin) using lipid substrate measured after 40 mins in presence of ATP by Kinase-Glo plus reagent based luminescence assay
T2 sequence (O00329 whole entry): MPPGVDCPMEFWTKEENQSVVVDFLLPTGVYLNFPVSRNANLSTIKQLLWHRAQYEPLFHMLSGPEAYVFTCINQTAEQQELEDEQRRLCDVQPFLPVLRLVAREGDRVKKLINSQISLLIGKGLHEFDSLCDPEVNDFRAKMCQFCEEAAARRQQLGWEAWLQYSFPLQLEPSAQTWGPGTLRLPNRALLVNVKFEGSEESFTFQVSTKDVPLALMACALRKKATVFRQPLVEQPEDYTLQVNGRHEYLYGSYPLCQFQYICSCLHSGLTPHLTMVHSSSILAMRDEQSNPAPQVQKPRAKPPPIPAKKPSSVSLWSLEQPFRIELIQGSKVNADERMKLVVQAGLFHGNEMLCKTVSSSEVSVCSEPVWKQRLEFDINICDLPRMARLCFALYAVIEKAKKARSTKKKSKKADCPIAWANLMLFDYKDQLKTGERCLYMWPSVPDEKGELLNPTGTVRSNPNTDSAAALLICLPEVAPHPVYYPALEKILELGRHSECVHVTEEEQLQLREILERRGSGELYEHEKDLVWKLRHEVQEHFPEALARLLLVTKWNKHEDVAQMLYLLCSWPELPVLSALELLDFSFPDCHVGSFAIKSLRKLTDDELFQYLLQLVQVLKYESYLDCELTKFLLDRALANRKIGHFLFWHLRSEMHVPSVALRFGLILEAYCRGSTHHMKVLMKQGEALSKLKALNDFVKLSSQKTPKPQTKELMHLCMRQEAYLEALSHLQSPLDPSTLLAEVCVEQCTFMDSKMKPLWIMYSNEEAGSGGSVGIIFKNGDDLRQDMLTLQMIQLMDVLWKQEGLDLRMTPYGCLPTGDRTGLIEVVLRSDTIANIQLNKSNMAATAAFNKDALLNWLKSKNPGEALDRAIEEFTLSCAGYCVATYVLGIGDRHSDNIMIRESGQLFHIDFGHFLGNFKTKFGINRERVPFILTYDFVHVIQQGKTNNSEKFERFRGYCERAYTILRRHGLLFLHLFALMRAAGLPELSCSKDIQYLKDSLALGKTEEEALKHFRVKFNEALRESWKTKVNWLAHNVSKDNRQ

[6] = Inhibition of PI3K/AKT/mTOR signaling in human HCT116 cells assessed as decrease in AKT phosphorylation at S473 measured after 5 hrs by Western blot analysis; format: cell-based
HCT-116 [7] = test: Antitumour activity against human HCT116 cells xenografted in BALB/c nude mouse assessed as tumour volume at 5 mg/kg, po via gavage administered once daily for 15 days and measure every three days by caliper method (reference value: 2769 +/- 536 mm3); format: functional
HCT-116 [8] = test: Antitumour activity against human HCT116 cells xenografted in BALB/c nude mouse assessed as tumour volume at 25 mg/kg, po via gavage administered once daily for 15 days and measure every three days by caliper method (reference value: 2769 +/- 536 mm3); format: functional
HCT-116 [9] = test: Antitumour activity against human HCT116 cells xenografted in BALB/c nude mouse assessed as tumour growth inhibition at 5 mg/kg, po via gavage administered once daily for 15 days and measure every three days by caliper method relative to control; format: functional; details: HCT-116, po, read-out: TGI
HCT-116 [10] = test: Antitumour activity against human HCT116 cells xenografted in BALB/c nude mouse assessed as tumour growth inhibition at 25 mg/kg, po via gavage administered once daily for 15 days and measure every three days by caliper method relative to control; format: functional; details: HCT-116, po, read-out: TGI
HCT-116 [11] = test: Antitumour activity against human HCT116 cells xenografted in BALB/c nude mouse assessed as tumour weight at 5 mg/kg, po via gavage administered once daily for 15 days and measure every three days by caliper method (reference value: 3.2 +/- 0.32 g); format: functional
HCT-116 [12] = test: Antitumour activity against human HCT116 cells xenografted in BALB/c nude mouse assessed as tumour weight at 25 mg/kg, po via gavage administered once daily for 15 days and measure every three days by caliper method (reference value: 3.2 +/- 0.32 g); format: functional
[13] = Toxicity in BALB/c nude mouse xenografted with human HCT116 cells assessed as effect on body weight at 5 to 25 mg/kg, po via gavage administered once daily for 15 days; format: organism-based; details: in vivo, 360 h
[14] = target: T1, Phosphatidylinositol 4,5-bisphosphate 3-kinase catalytic subunit alpha isoform; test: Potency index, ratio of 2-methoxy-5-(4-(2-morpholinoethylamino)quinazolin-6-yl)nicotinonitrile IC50 to test compound IC50 for inhibition of PI3K alpha (unknown origin)
[15] = Inhibition of PI3K/AKT/mTOR signaling in human HCT116 cells assessed as decrease in AKT phosphorylation at S473 at 1 uM measured after 5 hrs by Western blot analysis; format: cell-based
Homo sapiens [16] = species: Homo sapiens; test: Selectivity ratio of IC50 for inhibition of PI3K beta (unknown origin) to IC50 for inhibition of PI3K alpha (unknown origin)
Homo sapiens [17] = species: Homo sapiens; test: Selectivity ratio of IC50 for inhibition of PI3K delta (unknown origin) to IC50 for inhibition of PI3K alpha (unknown origin)
Homo sapiens [18] = species: Homo sapiens; test: Selectivity ratio of IC50 for inhibition of PI3K gamma (unknown origin) to IC50 for inhibition of PI3K alpha (unknown origin)

T1 sequence (P42336 whole entry, canonical isoform): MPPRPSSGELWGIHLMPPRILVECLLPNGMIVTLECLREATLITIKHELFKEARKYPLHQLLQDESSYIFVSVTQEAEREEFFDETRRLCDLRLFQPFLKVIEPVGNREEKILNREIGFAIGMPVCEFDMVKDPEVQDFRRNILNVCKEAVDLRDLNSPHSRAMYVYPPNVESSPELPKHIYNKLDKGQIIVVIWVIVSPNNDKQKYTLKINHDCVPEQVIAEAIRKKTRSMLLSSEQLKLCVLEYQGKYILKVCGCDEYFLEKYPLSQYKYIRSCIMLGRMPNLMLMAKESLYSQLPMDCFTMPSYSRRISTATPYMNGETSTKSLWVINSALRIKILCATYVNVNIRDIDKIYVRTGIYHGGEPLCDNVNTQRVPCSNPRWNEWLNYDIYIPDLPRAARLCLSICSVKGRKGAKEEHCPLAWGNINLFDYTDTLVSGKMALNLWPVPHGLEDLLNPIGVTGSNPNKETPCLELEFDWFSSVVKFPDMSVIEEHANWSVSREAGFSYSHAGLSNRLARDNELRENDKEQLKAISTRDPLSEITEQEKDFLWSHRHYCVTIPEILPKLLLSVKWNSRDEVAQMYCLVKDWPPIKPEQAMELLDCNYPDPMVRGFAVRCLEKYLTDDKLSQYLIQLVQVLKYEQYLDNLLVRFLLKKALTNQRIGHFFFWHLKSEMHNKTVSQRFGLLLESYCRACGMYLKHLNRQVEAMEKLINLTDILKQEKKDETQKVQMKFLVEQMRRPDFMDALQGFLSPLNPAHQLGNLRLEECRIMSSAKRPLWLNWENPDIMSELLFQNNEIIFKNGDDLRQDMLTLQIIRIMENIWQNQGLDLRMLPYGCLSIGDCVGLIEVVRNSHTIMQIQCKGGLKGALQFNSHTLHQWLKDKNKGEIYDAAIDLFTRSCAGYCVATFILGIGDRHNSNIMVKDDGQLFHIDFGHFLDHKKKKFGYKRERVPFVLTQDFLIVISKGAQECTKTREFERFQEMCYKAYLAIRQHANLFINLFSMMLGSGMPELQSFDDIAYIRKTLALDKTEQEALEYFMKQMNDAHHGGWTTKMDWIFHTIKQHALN
Sequence of Phosphatidylinositol 4,5-bisphosphate 3-kinase catalytic subunit beta isoform (P42338 whole entry, canonical isoform): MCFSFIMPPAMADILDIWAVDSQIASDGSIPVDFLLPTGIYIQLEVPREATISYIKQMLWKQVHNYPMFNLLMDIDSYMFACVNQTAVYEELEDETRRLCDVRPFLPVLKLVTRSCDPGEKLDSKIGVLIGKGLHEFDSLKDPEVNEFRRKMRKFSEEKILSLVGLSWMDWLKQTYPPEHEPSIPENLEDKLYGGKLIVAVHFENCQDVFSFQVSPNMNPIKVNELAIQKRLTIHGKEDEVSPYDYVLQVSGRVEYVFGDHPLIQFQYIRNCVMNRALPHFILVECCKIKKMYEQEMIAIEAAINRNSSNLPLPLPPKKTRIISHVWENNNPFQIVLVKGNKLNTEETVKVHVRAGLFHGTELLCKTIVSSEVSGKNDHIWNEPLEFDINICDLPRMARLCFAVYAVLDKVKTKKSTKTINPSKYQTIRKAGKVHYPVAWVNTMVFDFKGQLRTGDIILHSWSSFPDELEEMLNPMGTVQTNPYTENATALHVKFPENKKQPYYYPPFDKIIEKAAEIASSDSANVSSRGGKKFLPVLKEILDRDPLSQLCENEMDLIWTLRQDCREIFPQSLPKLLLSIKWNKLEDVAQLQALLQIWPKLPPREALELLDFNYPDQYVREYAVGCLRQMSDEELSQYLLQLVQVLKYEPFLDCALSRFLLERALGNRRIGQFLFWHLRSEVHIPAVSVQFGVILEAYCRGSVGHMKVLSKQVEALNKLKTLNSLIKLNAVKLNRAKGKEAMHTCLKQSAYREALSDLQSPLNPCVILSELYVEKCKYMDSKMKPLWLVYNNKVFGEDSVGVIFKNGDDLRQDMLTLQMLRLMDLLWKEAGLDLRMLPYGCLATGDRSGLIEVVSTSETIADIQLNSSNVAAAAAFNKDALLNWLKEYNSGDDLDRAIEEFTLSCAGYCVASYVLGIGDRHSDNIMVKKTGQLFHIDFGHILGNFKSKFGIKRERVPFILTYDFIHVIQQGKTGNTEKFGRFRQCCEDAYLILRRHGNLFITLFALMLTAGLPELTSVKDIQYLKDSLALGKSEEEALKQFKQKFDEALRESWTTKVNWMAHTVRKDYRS
Sequence of Phosphatidylinositol 4,5-bisphosphate 3-kinase catalytic subunit gamma isoform (P48736 whole entry, canonical isoform): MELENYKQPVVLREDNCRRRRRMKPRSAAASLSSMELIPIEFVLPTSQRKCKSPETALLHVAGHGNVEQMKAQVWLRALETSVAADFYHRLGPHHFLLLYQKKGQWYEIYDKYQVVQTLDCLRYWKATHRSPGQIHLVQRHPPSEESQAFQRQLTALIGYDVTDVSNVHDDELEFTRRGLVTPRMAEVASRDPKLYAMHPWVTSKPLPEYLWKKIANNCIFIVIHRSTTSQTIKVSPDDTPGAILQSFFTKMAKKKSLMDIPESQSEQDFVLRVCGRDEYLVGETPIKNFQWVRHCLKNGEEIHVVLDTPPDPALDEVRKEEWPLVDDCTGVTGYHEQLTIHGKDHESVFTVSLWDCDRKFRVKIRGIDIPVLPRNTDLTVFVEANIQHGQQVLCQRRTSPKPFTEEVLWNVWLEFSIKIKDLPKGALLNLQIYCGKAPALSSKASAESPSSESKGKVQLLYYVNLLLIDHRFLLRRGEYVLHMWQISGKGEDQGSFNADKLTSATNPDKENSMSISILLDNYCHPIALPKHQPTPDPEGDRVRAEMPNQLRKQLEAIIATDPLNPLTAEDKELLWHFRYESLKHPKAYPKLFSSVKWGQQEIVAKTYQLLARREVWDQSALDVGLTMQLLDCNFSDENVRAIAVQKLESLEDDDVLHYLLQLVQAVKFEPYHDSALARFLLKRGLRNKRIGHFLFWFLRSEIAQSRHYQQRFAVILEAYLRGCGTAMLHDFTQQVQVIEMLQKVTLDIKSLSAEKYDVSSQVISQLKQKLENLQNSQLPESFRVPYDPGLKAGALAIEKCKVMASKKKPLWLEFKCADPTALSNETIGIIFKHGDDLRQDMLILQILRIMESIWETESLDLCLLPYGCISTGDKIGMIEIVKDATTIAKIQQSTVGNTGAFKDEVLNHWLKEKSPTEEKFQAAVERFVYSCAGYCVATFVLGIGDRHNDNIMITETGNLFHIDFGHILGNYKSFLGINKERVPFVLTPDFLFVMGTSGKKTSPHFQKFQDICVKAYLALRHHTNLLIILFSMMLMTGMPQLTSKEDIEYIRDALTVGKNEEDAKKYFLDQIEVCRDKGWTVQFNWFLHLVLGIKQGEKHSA

SMILES	IC50 [1] [nM]	IC50 (HCT-116 [2]) [nM]	IC50 (MCF7) [nM]	IC50 (SU-DHL-6) [nM]	further results
COc1ncc(-c2ccc3ncnc(NC4CCN(C(=O)C5CCCC5)CC4)c3c2)cc1NS(C)(=O)=O	2.8	2800	7900	3300	–
COc1ncc(-c2ccc3ncnc(NC4CCNCC4)c3c2)cc1NS(C)(=O)=O	0.9	1300	11000	≥ 100000	–
COc1ncc(-c2ccc3ncnc(NCCN(C)C)c3c2)cc1NS(C)(=O)=O	7	8700	10000	1700	–
COc1ncc(-c2ccc3ncnc(NCCN4CCOCC4)c3c2)cc1NS(C)(=O)=O	4.5	820	990	190	IC50 [3]: 16 nM; IC50 [4]: 6 nM; IC50 [5]: 2.2 nM; inhibition [6]: Dose-dependent effect; Activity (HCT-116 [7]): 1299 mm3; Activity (HCT-116 [8]): 992 mm3; inhibition in vivo at 5 mg/kg (HCT-116 [9]): 53%; inhibition in vivo at 25 mg/kg (HCT-116 [10]): 62%; Activity (HCT-116 [11]): 2 g; Activity (HCT-116 [12]): 1.6 g; Activity [13]: Non-Toxic; Ratio IC50 [14]: 100
COc1ncc(-c2ccc3ncnc(N[C@H]4CCN(C(=O)C5CC5)C4)c3c2)cc1NS(C)(=O)=O	1	1000	3700	3000	–
COc1ncc(-c2ccc3ncnc(N[C@H]4CCN(C(=O)C(C)(C)C)C4)c3c2)cc1NS(C)(=O)=O	2.6	2000	590	7600	–
COc1ncc(-c2ccc3ncnc(NCCN4CCOCC4)c3c2)cc1NS(=O)(=O)C1CC1	7.1	1900	1500	330	–
COc1ncc(-c2ccc3ncnc(N[C@H]4CCN(C(=O)C5CCOCC5)C4)c3c2)cc1NS(C)(=O)=O	0.7	1700	4800	1500	IC50 [3]: 5.6 nM; IC50 [4]: 6.5 nM; IC50 [5]: 7.4 nM; Ratio IC50 (Homo sapiens [16]): 10; Ratio IC50 (Homo sapiens [17]): 10; Ratio IC50 (Homo sapiens [18]): 10

Continued by falling IC50 (HCT-116 [2]), values first:

IC50 [1] [nM]	IC50 (HCT-116 [2]) [nM]	IC50 (MCF7) [nM]	IC50 (SU-DHL-6) [nM]	SMILES	further results
106	29000	88000	≥ 100000	COc1ncc(-c2ccc3nccc(NCCN4CCOCC4)c3c2)cc1NS(C)(=O)=O	–
34	5800	3200	410	COc1ncc(-c2ccc3ncnc(NCCN4CCCCC4)c3c2)cc1NS(=O)(=O)C1CC1	–
7.7	5100	4700	1700	COc1ncc(-c2ccc3ncnc(N(C)CCN(C)C)c3c2)cc1NS(C)(=O)=O	–
2.1	2900	6000	≥ 100000	COc1ncc(-c2ccc3ncnc(NC4CCN(C(=O)C5CCOCC5)CC4)c3c2)cc1NS(C)(=O)=O	–
2.3	2100	2500	770	COc1ncc(-c2ccc3ncnc(N[C@H]4CCN(C(=O)C5CCCC5)C4)c3c2)cc1NS(C)(=O)=O	–
7	1800	15000	9700	COc1ncc(-c2ccc3ncnc(NC4CCN(C(=O)OC(C)(C)C)CC4)c3c2)cc1NS(C)(=O)=O	–
12	1600	3700	320	COc1ncc(-c2ccc3ncnc(NCCN4CCCCC4)c3c2)cc1NS(C)(=O)=O	–
0.4	720	16000	4300	COc1ncc(-c2ccc3ncnc(NC4CCN(C(C)=O)CC4)c3c2)cc1NS(C)(=O)=O	–
–	370	350	70	Cn1c(=O)n(-c2ccc(C(C)(C)C#N)cc2)c2c3cc(-c4cnc5ccccc5c4)ccc3ncc21 [DACTOLISIB]	inhibition [15]: Active
0.5	290	14000	≥ 100000	COc1ncc(-c2ccc3ncnc(N[C@H]4CCN(C(C)=O)C4)c3c2)cc1NS(C)(=O)=O	IC50 [3]: 5 nM; IC50 [4]: 4.3 nM; IC50 [5]: 6.8 nM; Ratio IC50 (Homo sapiens [16]): 10; Ratio IC50 (Homo sapiens [17]): 10; Ratio IC50 (Homo sapiens [18]): 10
5.3	250	870	170	COc1ncc(-c2ccc3ncnc(N[C@H]4CCN(C(=O)OC(C)(C)C)C4)c3c2)cc1NS(C)(=O)=O	–
